Legend:
[1] = system: E. coli; assay: Resistance to standard antibiotics, bacterial dilutions spotted onto solid medium; format: cell-based, Escherichia coli; conditions: dilutions spotted onto LB solid medium supplemented with antibiotic, outgrowth 48 h
Description: (§1) Escherichia coli (E. coli) NEB5α (New England Biolabs) and antibiotic-resistant and -sensitive Klebsiella pneumoniae (K. pneumoniae) were cultured in Luria-Bertani (LB) solid medium (LB-Agar) overnight at 37°C. The source of the K. pneumoniae strands is of no relevance to the invention. The invention may be applied to all types of microorganisms (bacteria, viri, fungi etc.) or other cells, either contained within a sample or isolated from a sample. For staining, growth curve analysis and replating experiments bacteria were suspended in LB liquid medium at an OD600 nm of 1.0 and 800 µL were transferred into a culture tube containing 7.2 mL of LB liquid medium supplemented with DMSO or candidate dyes (2.5 µM) final concentration). Density of bacterial cultures was measured using an Ultrospec 10 Cell Density Meter with 600 nm LED source (Amersham Biosciences). For bacterial re-plating experiments bacteria were sampled at OD600 nm = 2.0 and 5 µL of indicated dilutions in LB-medium were spotted onto LB-agar plates (Fig. 5) or 100 µL were plated onto LB-agar plates followed by incubation at 37°C until colonies became visible.

[2] = system: antibiotic-sensitive K. pneumoniae; assay: as above; format: cell-based, Klebsiella pneumoniae; conditions: the other (antibiotic-sensitive) K. pneumoniae strain; dilutions spotted onto LB solid medium supplemented with antibiotic, outgrowth 48 h
Description: as §1

[3] = system: multiresistant K. pneumoniae; assay: as above; format: cell-based, Klebsiella pneumoniae; conditions: dilutions spotted onto LB solid medium supplemented with antibiotic, outgrowth 48 h
Description: as §1

[4] = target: dsDNACT; conditions: previously obtained results for DNA intercalators with the same DNA (dsDNACT); cited from earlier work
[5] = Fluorescence quantum yield, dye alone; format: physicochemical; conditions: reference compounds determined against each other; Atto 655 in PBS pH 7.4, Alexa Fluor 647 in 50 mM potassium phosphate pH 7.2 and 150 mM NaCl
Description: Fluorescence intensity values for the quantum yields were determined on an ISS PC1 spectrofluorometer with an ISS 11650 lamp connected to an ISS Simpson model 109 and an ISS 80011 photomulitplier connected to a MGW Lauda K2R D and an Amherst Scientific Corp. 7600F for cooling. A VWR Refrigerated Circ 1160S was connected for the cooling of the cuvette chamber. It was measured in a 1400 µL fluorescence cuvette of HellmaAnalytics (104F-QS) at 25°C using the following settings: increment: 2.0 nm; integration time: 1.0 s; excitation slit width: 0.25 mm; emission slit width: 0.5 mm; excitation wavelength 590 nm. The emission spectra were recorded from 610 to 750 nm. From all spectra the corresponding background signal was substracted. Absorbance values were measured on a Jasco V-650 UV-Vis Spectrophotometer equipped with a Jasco PAC-743 temperature controlled cell holder and a Julabo F250 cooling system. UV-Vis titration measurements were performed in a 1400 µL quarz cuvette with a pathlength of 1 cm at 25°C using the following settings: increment: 1.0 nm; bandwidth: 1.0 nm; scanning speed: 1000 nm/min; scanning mode: continuous. From all values, the corresponding background signal was subtracted. The values for the reference compounds were measured in duplicates, the ones for 6-TramTO-3 with and without dsDNACT in triplicates. The quantum yields of 6-TramTO-3 with (30 eq.) and without dsDNACT were determined in 10 mM Tris pH 7.6 and 50 mM KCI. All measurement were following the procedure of Horiba and using the equation E1: ΦX = ΦST ((GradX)/(GradST)) ((((ηX))^2)/(((ηST))^2)) [formula] where Φ = fluorescence quantum yield, η = refractive index of the used solvent, Grad = gradient from the plot of integrated fluorescence intensity vs. absorbance and the subscripts ST and X denote standard and tested sample. […]
Table 3: Determined slopes and corresponding quantum yields for the two reference compounds Alexa Flour® 647 and Atto 655 and for 6-TramTO-3 with and without dsDNACT.

[6] = Atto 655 in PBS pH 7.4; Alexa Fluor 647 in 50 mM potassium phosphate pH 7.2 and 150 mM NaCl; cited from earlier work
[7] = Molar extinction coefficient determination; format: physicochemical
Description: The concentration determination and measurement of full UV-Vis spectra were performed on a Tecan 20M at room temperature. The measurements were performed in a 1400 µL quarz cuvette with a pathlength of 1 cm in a volume of 1 mL.
For the accurate determination of our compounds 6-TramTO-3 the extinction coefficient was calculated. A specific amount (< 2.00 mg) of the compound was weighted on a Mettler Toledo XP6 and dissolved in a known amount of milli-Q water. Increasing amounts of such stock solution were added into a 1 mL cuvette filled with 1 ml of milli-Q water. The corresponding absorbance of each addition was measured on a Tecan Spark 20M at the maximum at 625 nm and without exceeding 10% of the initial volume. In all the cases the absorbance was between 0.1 and 1 AU. to be in concordance with Lambert-Beer law (equation E2). A = ε l c [formula]
In this equation (E2): A = absorbance of the solution; I = length of the cuvette; c = concentration; ε = molar extinction coefficient.
The lineal regression of the obtained absorbance measurements versus the concentrations of 6-TramTO-3 allowed us to obtain the molar extinction coefficient. These measurements were repeated three times independently i.e. from three different stock solutions. The mean extinction coefficient and the standard deviation of 6-TramTO-3 at a wavelength of 625 nm in milli-Q water was 59403 ±646 M^-1cm^-1.
The mean extinction coefficient and the standard deviation of 6-NH2TO-3 and 6-AzTO-3 were determined following the above described procedure. The extinction coefficient of 6-NH2TO-3 was determined in milli-Q water, whereas the extinction coefficient of 6-AzTO-3 was determined in DMSO due to its low aqueous solubility. […] For the spectrum of 6-AzTO-3 1% of DMSO was added for a better solubility. Fig. 20 and Fig. 21 show the linear regressions from the three independent measurements. Table 4 summarized the molar extinction coefficient obtained. Table 4: Determined mean extinction coefficients and standard deviations of 6-AzTO-3 in DMSO and 6-TramTO-3 and 6-NH2TO-3 in milli-Q water.

[8] = Aqueous solubility (remark); format: physicochemical; conditions: reason why the extinction coefficient was determined in DMSO
[9] = system: Escherichia coli (E. coli) NEB5α; assay: Bacteria culture and staining: growth and FACS labeling of E. coli; format: cell-based; conditions: for bacterial growth in presence of dye: 2.5 µM dye in LB medium, OD600 over time, liquid and solid medium; for fluorescent labeling of live bacteria (FACS): 2.5 µM dye in culture medium, FACS at mid-exponential growth phase (OD600 = 2.0)
Description: as §1
Bacteria and macrophages were washed with PBS prior to flow cytometry and analysed using a Guava easyCyte flow cytometer (Millipore). FCS3.0 files were analysed using Flowing Software (http://flowingsoftware.btk.fi/). Cells were first gated in the forward- / side-scatter plot to exclude debries, followed by quadrant gating in plots using the fluorescence channels as shown above. For discrimination of live/dead cell discrimination cells in PBS were supplemented with 0.4 µL/mL propidium-iodide (5 mg/ml solution) followed by 5 min incubation on ice. Propidium iodide signal was recorded in the yellow channel.

[10] = system: bacteria; conditions: in vivo labeling of bacteria for macrophage uptake assays; indicative of toxicity; cited from earlier work

## O=C(N[C@H](CO)[C@H](O)c1ccc([N+](=O)[O-])cc1)C(Cl)Cl [chloramphenicol]
[1]
  sensitivity to antibiotic: sensitive
[2]
  sensitivity to antibiotic: sensitive
[3]
  sensitivity to antibiotic: insensitive

## CN(C)c1ccc2nc3ccc(=[N+](C)C)cc-3sc2c1 [methylene blue]
[4]
  Kd: 46 µM

## CC1(C)S[C@@H]2[C@H](NC(=O)[C@H](N)c3ccccc3)C(=O)N2[C@H]1C(=O)O [ampicillin]
[1]
  sensitivity to antibiotic: sensitive
[2]
  sensitivity to antibiotic: sensitive
[3]
  sensitivity to antibiotic: insensitive

## CC[N+]1=c2cc3c(cc2CCC1)=Nc1cc2c(cc1O3)N(CCCC(=O)ON1C(=O)CCC1=O)C(C)(C)CC2CS(=O)(=O)[O-] (centres unmarked) [Atto 655, reference compound]
[5]
  quantum yield: 0.31
[6]
  quantum yield (lit.): 0.30

## CC[n+]1ccc(/C=C/C=C2\Sc3ccccc3N2CCCCCCN=[N+]=[N-])c2ccccc21.[I-] [6-AzTO-3, 4-((1E,3Z)-3-(3-(6-azidohexyl)benzo[d]thiazol-2(3H)-ylidene)prop-1-en-1-yl)-1-ethylquinolin-1-ium iodide]
[7]; in DMSO, absorbance maximum at 639 nm
  mean extinction coefficient: 110203 ± 1577 M⁻¹ cm⁻¹
[8]
  aqueous solubility: low

## carboxyfluorescein succinimidyl ester [CFSE]
[9]
  bacterial growth in presence of dye: compatible with bacterial growth
  fluorescent labeling of live bacteria (FACS): hardly labeled bacteria

## CC[n+]1ccc(/C=C/C=C2\Sc3ccccc3N2CCCCCCN)c2ccccc21.O=C([O-])C(F)(F)F [6-NH2TO-3, mono(4-((1E,3Z)-3-(3-(6-ammoniohexyl)benzo[d]thiazol-2(3H)-ylidene)prop-1-enyl)-1-ethylquinolinium) mono(2,2,2-trifluoroacetate)]
[7]; in milli-Q water, absorbance maximum at 625 nm
  mean extinction coefficient: 90043 ± 418 M⁻¹ cm⁻¹

## CN(C)c1ccc2cc3ccc(N(C)C)cc3nc2c1 [acridine orange]
[4]
  Kd: 36 µM

## SyTO-9^™
[9]
  bacterial growth in presence of dye: delayed bacterial growth substantially
  fluorescent labeling of live bacteria (FACS): efficient green-fluorescent labeling
[10]
  colony formation of the stained bacteria: reduced colony formation

## Alexa Fluor^® 647 [reference compound]
[5]
  quantum yield: 0.32
[6]
  quantum yield (lit.): 0.33
